Earlier results on one compound are cited in patent US20030166469A1, “Crop harvesting method using a 1,2,4-triazol-1-ylpropanoic acid and derivatives” (priority 2001, published 2003).

This series concerns cotton. The conditions noted are these: tested alone, no adjuvant; data of U.S. Pat. No. 6,444,613.

Take `CCOC(=O)C(Cl)Cc1cc(-n2nc(C)n(C(F)F)c2=O)c(F)cc1Cl` (stereo not drawn) [Compound Ic, ethyl α,2-dichloro-5-[4-(difluoromethyl)-4,5-dihydro-3-methyl-5-oxo-1H-1,2,4-triazol-1-yl]-4-fluoropropanoate]: the defoliation of cotton was no more than 29%.
